Data from paper PMC10974052, “Synthesis, Computational Study, and In Vitro α-Glucosidase Inhibitory Action of 1,3,4-Thiadiazole Derivatives of 3-Aminopyridin-2(1H)-ones” (Pharmaceuticals, 2024).

test system: not given; assay: not given; conditions: not given

Structure (SMILES)	melting point [°C]
Cc1cc(-c2cccs2)c(NC(=O)c2nnc(-c3ccccc3C(=O)O)s2)c(=O)[nH]1 [9c, 2-(5-((6-Methyl-2-oxo-4-(thiophen-2-yl)-1,2-dihydropyridin-3-yl)carbamoyl)-1,3,4-thiadiazol-2-yl)benzoic acid]	275 to 277
Cc1cc(-c2ccccc2)c(NC(=O)c2nnc(-c3ccccc3C(=O)O)s2)c(=O)[nH]1 [9b, 2-(5-((6-Methyl-2-oxo-4-phenyl-1,2-dihydropyridin-3-yl)carbamoyl)-1,3,4-thiadiazol-2-yl)benzoic acid]	176 to 180
Cc1cc(-c2cccs2)c(NC(=O)c2nnc(CCCC(=O)O)s2)c(=O)[nH]1 [7c, 4-(5-((6-Methyl-2-oxo-4-(thiophen-2-yl)-1,2-dihydropyridin-3-yl)carbamoyl)-1,3,4-thiadiazol-2-yl)butanoic acid]	197 to 200
Cc1cc(-c2ccccc2)c(NC(=O)c2nnc(/C=C/C(=O)O)s2)c(=O)[nH]1 [8b, (E)-3-(5-((6-Methyl-2-oxo-4-phenyl-1,2-dihydropyridin-3-yl)carbamoyl)-1,3,4-thiadiazol-2-yl)acrylic acid]	199 to 202
Cc1cc(C)c(NC(=O)c2nnc(CCCC(=O)O)s2)c(=O)[nH]1 [7a, 4-(5-((4,6-Dimethyl-2-oxo-1,2-dihydropyridin-3-yl)carbamoyl)-1,3,4-thiadiazol-2-yl)butanoic acid]	248 to 250
Cc1cc(-c2cccs2)c(NC(=O)c2nnc(/C=C/C(=O)O)s2)c(=O)[nH]1 [8c, (E)-3-(5-((6-Methyl-2-oxo-4-(thiophen-2-yl)-1,2-dihydropyridin-3-yl)carbamoyl)-1,3,4-thiadiazol-2-yl)acrylic acid]	247 to 250
Cc1cc(C)c(NC(=O)c2nnc(/C=C/C(=O)O)s2)c(=O)[nH]1 [8a, (E)-3-(5-((4,6-Dimethyl-2-oxo-1,2-dihydropyridin-3-yl)carbamoyl)-1,3,4-thiadiazol-2-yl)acrylic acid]	261 to 263
Cc1cc(C)c(NC(=O)c2nnc(-c3ccccc3C(=O)O)s2)c(=O)[nH]1 [9a, 2-(5-((4,6-Dimethyl-2-oxo-1,2-dihydropyridin-3-yl)carbamoyl)-1,3,4-thiadiazol-2-yl)benzoic acid]	315 to 318
Cc1cc(-c2ccccc2)c(NC(=O)c2nnc(CCCC(=O)O)s2)c(=O)[nH]1 [7b, 4-(5-((6-Methyl-2-oxo-4-phenyl-1,2-dihydropyridin-3-yl)carbamoyl)-1,3,4-thiadiazol-2-yl)butanoic acid]	243 to 246

biological target: α-glucosidase (Saccharomyces cerevisiae, UniProt P53341); assay: In vitro α-glucosidase inhibition assay (p-NPG hydrolysis, 405 nm); type: biochemical; parameters: inhibition: dose or concentration left out as unconfirmed; conditions: read-out: The Degree of Inhibition of α-Glucosidase Activity, tested compounds at a concentration of 15 mM (Table 1 title); mean ± standard error of the mean, triplicate
Sequence (P53341 whole entry): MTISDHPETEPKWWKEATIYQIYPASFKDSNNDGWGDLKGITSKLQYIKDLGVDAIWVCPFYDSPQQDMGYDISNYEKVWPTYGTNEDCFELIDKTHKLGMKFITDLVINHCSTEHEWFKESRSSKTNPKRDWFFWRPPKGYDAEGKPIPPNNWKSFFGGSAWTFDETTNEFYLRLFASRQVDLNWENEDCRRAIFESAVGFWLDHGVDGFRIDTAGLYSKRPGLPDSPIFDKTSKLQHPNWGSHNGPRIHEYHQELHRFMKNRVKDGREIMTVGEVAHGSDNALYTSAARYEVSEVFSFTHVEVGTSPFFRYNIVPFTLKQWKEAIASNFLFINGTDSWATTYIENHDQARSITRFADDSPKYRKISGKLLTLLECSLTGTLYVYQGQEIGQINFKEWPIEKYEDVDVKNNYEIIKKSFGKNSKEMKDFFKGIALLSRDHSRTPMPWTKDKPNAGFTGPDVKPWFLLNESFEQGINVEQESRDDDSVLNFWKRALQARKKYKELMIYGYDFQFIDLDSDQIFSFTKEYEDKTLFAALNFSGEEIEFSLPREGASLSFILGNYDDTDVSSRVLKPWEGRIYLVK
Protocol: Antidiabetic activity was assessed by the degree of inhibition of α-glucosidase activity by the test substances.
The study of the degree of α-glucosidase activity inhibition by the test compounds was performed using a standard method with minor modifications.
Study of the degree of inhibition of α-glucosidase activity by test compounds [25].
The principle of the method is as follows: the α-glucosidase enzyme hydrolyzes 4-Nitrophenyl α-D-glucopyranoside to form a colorimetric product (405 nm), the concentration of which is proportional to the α-glucosidase activity. […] The resulting mixture was incubated for 15 min at +37 °C, then 200 μL of a solution of 4-Nitrophenyl α-D-glucopyranoside (p-Nitrophenyl α-D-glucopyranoside, P-NPG) (5 mM) was added, and then the mixture was incubated at +37 °C for 20 min. Then, the reaction was stopped by adding 500 μL of sodium carbonate (0.1 M). A solution of α-glucosidase (1 U/mL) was used as a blank. We used 200 μL of DMSO in triplicate as a negative control. […] At the same time, a negative control was set without addition of test compounds. All samples were studied in triplicate. Inhibitory activity was expressed as a percentage (%) according to the degree of inhibition of α-glucosidase in comparison with the negative control. It was calculated by the following formula:
Inhibitory activity (%) = (1 − As/Ac)∗100%, where As is the optical density of the test compound, and Ac is the optical density of control.
The IC50 was determined from the graph of enzyme activity changes depending on the sample concentration.
Statistical processing of the results was carried out using the “Excel 365 v2401” program. […] The α-amylase and α-glucosidase enzymes determine the extent to which glucose enters the bloodstream from the gastrointestinal tract. Inhibition of these enzymes can be useful for lowering postprandial glucose levels.

Structure (SMILES)	inhibition at 15000 µM [%]
Cc1cc(-c2ccccc2)c(NC(=O)c2nnc(-c3ccccc3C(=O)O)s2)c(=O)[nH]1 [9′b]	95

same assay, conditions: read-out: The Degree of Inhibition of α-Glucosidase Activity; mean ± standard error of the mean, triplicate

Structure (SMILES)	inhibition [%]
Cc1cc(-c2ccccc2)c(NC(=O)c2nnc(/C=C/C(=O)O)s2)c(=O)[nH]1 [8′b]	68.2 ± 4.7
Cc1cc(C)c(NC(=O)c2nnc(-c3ccccc3C(=O)O)s2)c(=O)[nH]1 [9′a]	33.6 ± 6.1
Cc1cc(-c2ccccc2)c(NC(=O)c2nnc(CCCC(=O)O)s2)c(=O)[nH]1 [7′b]	95 ± 0.2
Cc1cc(-c2cccs2)c(NC(=O)c2nnc(CCC(=O)O)s2)c(=O)[nH]1 [5′c]	38.3 ± 2.4
Cc1cc(-c2cccs2)c(NC(=O)c2nnc(CCCC(=O)O)s2)c(=O)[nH]1 [7′c]	93.9 ± 0.4
Cc1cc(-c2ccccc2)c(NC(=O)c2nnc(CCC(=O)O)s2)c(=O)[nH]1 [5′b]	72.4 ± 2.3
Cc1cc(C)c(NC(=O)c2nnc(CCCC(=O)O)s2)c(=O)[nH]1 [7′a]	34.8 ± 4.2
Cc1cc(-c2cccs2)c(NC(=O)c2nnc(-c3ccccc3C(=O)O)s2)c(=O)[nH]1 [9′c]	21 ± 2.2
Cc1cc(C)c(NC(=O)c2nnc(CCC(=O)O)s2)c(=O)[nH]1 [5′a]	36.3 ± 4.8
Cc1cc(C)c(NC(=O)c2nnc(/C=C/C(=O)O)s2)c(=O)[nH]1 [8′a]	14 ± 3
Cc1cc(-c2cccs2)c(NC(=O)c2nnc(/C=C/C(=O)O)s2)c(=O)[nH]1 [8′c]	8 ± 3

same assay, conditions: tested compounds at a concentration of 15 mM (Table 1 title); mean ± standard error of the mean, triplicate

Structure (SMILES)	The Degree of Inhibition of α-Glucosidase Activity [%]
C[C@H]1O[C@H](O[C@H]2[C@H](O)[C@@H](O)[C@@H](O[C@H]3[C@H](O)[C@@H](O)C(O)O[C@@H]3CO)O[C@@H]2CO)[C@H](O)[C@@H](O)[C@@H]1N[C@H]1C=C(CO)[C@@H](O)[C@H](O)[C@H]1O (stereo partly shown) [Acarbose, reference compound]	49.5 ± 1.8
